Laboratory results from paper PMC9317316, “Synthesis and Evaluation of Some New 4H-Pyran Derivatives as Antioxidant, Antibacterial and Anti-HCT-116 Cells of CRC, with Molecular Docking, Antiproliferative, Apoptotic and ADME Investigations” (Pharmaceuticals, 2022).
“And” between values parts separate entries of the source, which are not always exact repeats. Equal entries are not always repeated. Where two headings read alike, the source gives them in different places.

How the values were obtained:
[1] = DPPH radical scavenging assay; conditions: for IC50: 0.03 to 1 mg/mL, 1 h, mean ± SD, triplicate, read-out: IC50 (mM) for DPPH Scavenging Potency
Method: The IC50 values for DPPH were calculated from the plot of the scavenging effect against the compound concentration.
The compounds’ capacities to scavenge the stable radical 1,1 diphenyl-2-picrylhydrazyl (DPPH) formed in solution by donation of a hydrogen atom or an electron was investigated according to the method described by Bersuder and coworkers. Due to the fact that the initial blue/purple solution of diphenyl picrylhydrazine changes to yellow in the presence of compounds with a capacity to scavenge DPPH free radicals, this reaction is used as a measure of a compound’s ability to scavenge any free radical. Briefly, a 0.5 mL volume of DPPH ethanolic solution was mixed with an equal volume of each sample concentration (0.03 to 1 mg/mL), shaken strongly and incubated at room temperature for 1 h in darkness. The absorbance of the residual DPPH radicals was measured at 519 nm and compared to that of the control (without the tested compound). DPPH radical scavenging was calculated using the following formula: Scavenging effect (%) = (1 − Acompound/AControl) × 100, where Acompound and Acontrol are the absorbances of the tested compound and of the control, respectively. A plot of the scavenging effect (%) versus the sample concentration was also performed to determine the compound concentration providing 50% inhibition (IC50).

[2] = Reducing power assay (FRAC, Fe3+ to Fe2+); conditions: 0-1 mg/mL, absorbance 700 nm
Method: Secondly, FRAC was determined over the concentration range of 0.0−1 mg/mL via monitoring Fe^3+−Fe^2+ transformation in the presence of the studied compounds and the reference antioxidant BHT to estimate the values of efficient concentration (EC50), expressed in mM.
The reducing power of the studied compounds was assessed according to Oyaizu’s method. Briefly, different concentrations (ranging from 0 to 1 mg/mL) of each tested compound were first mixed with 1 mL of 0.2 M sodium phosphate buffer (pH 6.6) and 1 mL of 1% potassium ferricyanide (K3Fe(CN)6) and incubated at 50 °C for 20 min. After the addition of 1.25 mL of 20% trichloroacetic acid (TCA), the mixture was centrifuged for 10 min at 3000 rpm and the upper layer solution was then mixed with 0.5 mL of 0.1% fresh ferric chloride and an equal volume of deionized water. Finally, the absorption of the resulting mixture was measured at 700 nm using a UV spectrophotometer against distilled water as the blank, while butylated hydroxytoluene (BHT) was used as a positive control. The sample ferric reducing power capability was indicated by increased absorbance.

B. cereus (ATCC 14579) [3] = test: Antibacterial agar diffusion method (inhibition zone); assay type: cell-based
Method: (§1) The results for the in vitro antibacterial properties of the synthesized compounds against five Gram-positive and four Gram-negative human-pathogenic strains, which were assessed by both the agar diffusion method (based on inhibition zone (IZ)) and the broth dilution bioassay (for the determination of the half-maximal inhibitory concentration (IC50) values), using ampicillin as the reference antibiotic drug, are shown in Table 2 and Table 3.
(§2) The antibacterial activity of all synthesized compounds was evaluated against the Gram-negative strains E. coli (ATCC 25966), K. pneumonia (ATCC 700603), P. aeruginosa (ATCC 27853) and S. enteric (ATCC 43972) and against the Gram-positive strains B. cereus (ATCC 14579), B. subtilis (ATCC 6633), E. faecalis (ATCC 29122), S. aureus (ATCC 25923) and S. epidermidis (ATCC 14990), using the agar diffusion method through measuring the appearance of the inhibition zone on the surface of the top agar, as reported by Berghe and Vlietinck. Ampicillin (10 µg/well) was used as the positive reference standard. Bacterial viability was also investigated by determining the colony-forming ability (CFU) of bacteria incubated at different time intervals without or with appropriate amounts of the compound, which were mixed with 2 ×10^7 CFU/mL in sterile BHI and incubated under shaking for 60 min at 37 °C. Samples were serially diluted into sterile BHI, streaked onto media agar plates and incubated for 24 h at 37 °C. The antibacterial potency of the tested compounds was expressed as the residual number of CFUs with reference to the initial inoculums. The results presented as the half-maximal (50 %) inhibitory concentration (IC50) values are the means of three different measurements.

B. subtilis (ATCC 6633) [4] = test: as above; assay type: cell-based
Method: as §1, §2

E. coli (ATCC 25966) [5] = test: as above; assay type: cell-based; conditions: E. coil (ATCC 25966)
Method: as §1, §2

E. faecalis (ATCC 29122) [6] = test: as above; assay type: cell-based
Method: as §1, §2

[7] = tested on: K. pneumonia (ATCC 700603); test: as above; assay type: cell-based
Method: as §1, §2

[8] = tested on: P. aeruginosa (ATCC 27853); test: as above; assay type: cell-based
Method: as §1, §2

S. aureus (ATCC 25923) [9] = test: as above; assay type: cell-based
Method: as §1, §2

S. enteric (ATCC 43972) [10] = test: as above; assay type: cell-based
Method: as §1, §2

[11] = tested on: S. epidermidis (ATCC 14990); test: as above; assay type: cell-based
Method: as §1, §2

B. cereus (ATCC 14579) [12] = test: Antibacterial viability (CFU) assay, IC50; assay type: cell-based; conditions: Bacillus cereus, ATCC14579
Method: as §1, §2

B. subtilis (ATCC 6633) [13] = test: Antibacterial viability (CFU) assay, IC50; assay type: cell-based; conditions: Bacillus subtilis, ATCC6633, B. subtilis (ATCC 6633)
Method: as §1, §2

E. coli (ATCC 25966) [14] = test: Antibacterial viability (CFU) assay, IC50; assay type: cell-based; conditions: Escherichia coli, ATCC25966; E. coil (ATCC 25966)
Method: as §1, §2

E. faecalis (ATCC 29122) [15] = test: Antibacterial viability (CFU) assay, IC50; assay type: cell-based; conditions: Enterococcus faecalis, ATCC29122
Method: as §1, §2

[16] = tested on: K. pneumonia (ATCC 700603); test: Antibacterial viability (CFU) assay, IC50; assay type: cell-based; conditions: Klebsiella pneumoniae, ATCC700603
Method: as §1, §2

[17] = tested on: P. aeruginosa (ATCC 27853); test: Antibacterial viability (CFU) assay, IC50; assay type: cell-based; conditions: Pseudomonas aeruginosa, ATCC27853
Method: as §1, §2

S. aureus (ATCC 25923) [18] = test: Antibacterial viability (CFU) assay, IC50; assay type: cell-based; conditions: Staphylococcus aureus, ATCC25923
Method: as §1, §2

S. enteric (ATCC 43972) [19] = test: Antibacterial viability (CFU) assay, IC50; assay type: cell-based; conditions: read-out: IC50
Method: as §1, §2

[20] = tested on: S. epidermidis (ATCC 14990); test: Antibacterial viability (CFU) assay, IC50; assay type: cell-based; conditions: Staphylococcus epidermidis, ATCC14990
Method: as §1, §2

HCT-116 cells = test: Cell viability (cytotoxicity, LDH release) assay; assay type: cell-based; conditions: Homo sapiens, 24 h; for viability at 100 µg/mL: read-out: percent of viable cells
Method: The synthesized compounds were also examined at four concentrations (10, 25, 50 and 100 µg/mL) for their cytotoxic effects on human colorectal cancer HCT-116 cells after their incubation together for 24 h.
Cytotoxic potency was examined for a human colon cancer cell line HCT-116 (American Type Culture Collection; Manassas, VA, USA) using various amounts of each compound (10, 25, 50 and 100 µg). Samples were diluted in Dulbecco’s Modified Eagle’s Medium, consisting of 10% Fetal Bovine Serum, and added to cells grown and cultured for 24 h in a 5% CO2-humidified incubator at 37 °C. Then, the activity of lactate dehydrogenase released from damaged cells was determined in the collected supernatant aliquots using an ELISA endpoint assay (Benchmark Plus, Bio-Rad, Hercules, CA, USA). As positive and negative controls, respectively, 0.1% Triton X-100 in the assay medium and the assay medium only were used. Cell viability, shown as mean values ± SDs (n = 3), was expressed as a relative percentage of the OD values determined at 600 nm in compound-treated cells and the control.

[21] = read-out: Mean IC50 (µM) of cytotoxicity
[22] = read-out: Mean IC50 (µg/mL) of cytotoxicity

SMILES | IC50 [1] [mM] | DPPH Radical Scavenging Effenciency (%) at 1 mg/mL [1] [%] | EC50 [2] [µM] | IZ (mm) (B. cereus (ATCC 14579) [3]) | IZ (mm) (B. subtilis (ATCC 6633) [4]) | IZ (mm) (E. coli (ATCC 25966) [5]) | IZ (mm) (E. faecalis (ATCC 29122) [6]) | IZ (mm) [7] [mm] | IZ (mm) [8] [mm] | IZ (mm) (S. aureus (ATCC 25923) [9]) | IZ (mm) [11] | IC50 (B. cereus (ATCC 14579) [12]) [µM] | IC50 (B. subtilis (ATCC 6633) [13]) [µM] | IC50 (E. coli (ATCC 25966) [14]) [µM] | IC50 (E. faecalis (ATCC 29122) [15]) [µM] | IC50 [16] [µM] | IC50 [17] [µM] | IC50 (S. aureus (ATCC 25923) [18]) [µM] | IC50 (S. enteric (ATCC 43972) [19]) [µM] | IC50 [20] [µM] | other results
COC(=O)C1=C(C)OC(N)=C(C#N)C1c1ccccc1C(=O)O (stereo not shown) [4a, 6-Amino-4-(2-carboxy-phenyl)-5-cyano-2-methyl-4H-pyran-3-carboxylic acid methyl ester] | 2.29 ± 0.134 | 24.15 ± 1.62 | 827 ± 45 | 7.50 ± 0.71 | 5.20 ± 0.28 | 4.5 ± 0.71 | 9.00 ± 1.41 | 2.5 ± 0.7 | 5.5 ± 0.7 | 8.00 ± 1.41 | 9.50 ± 0.71 mm | 71.8 ± 2.04 | 64.4 ± 3.37 | 138 ± 6.68 | 49.6 ± 1.81 | 131 ± 3.5 | 37.6 ± 0.5 | 41.2 ± 2.48 | 120 ± 1.91 | 42.3 ± 1.33 | IZ (mm) (S. enteric (ATCC 43972) [10]): 4.5 ± 0.7 mm; viability at 100 µg/mL (HCT-116 cells): 46%; IC50 (HCT-116 cells; [21]): 165 ± 14.4 µM; IC50 (HCT-116 cells; [22]): 52 ± 4.54 µg/mL; melting point: 216 to 218 °C
CCOC(=O)C1=C(C)OC(N)=C(C#N)C1c1cccc(OC)c1[N+](=O)[O-] (stereo not shown) [4b, 6-Amino-5-cyano-4-(3-methoxy-2-nitro-phenyl)-2-methyl-4H-pyran-3-carboxylic acid ethyl ester] | 2.56 ± 0.117 | 23.25 ± 1.06 | 1200 ± 79 | 16.50 ± 0.71 | 19.50 ± 0.71 | 2.5 ± 0.71 | 15.50 ± 0.71 | 1.5 ± 0.7 | 2.5 ± 0.7 | 20.50 ± 0.71 | 23.50 mm and 23.50 ± 0.71 mm | 43.1 ± 1.98 | 49.1 ± 1.39 | 100 ± 3.9 | 56.8 ± 1.59 | 99.1 ± 2.5 | 84 ± 5.01 | 50.2 ± 1.39 | 118 ± 3.34 | 32.4 ± 1.39 | viability at 100 µg/mL (HCT-116 cells): 11 to 32.5%; IC50 (HCT-116 cells; [21]): 102 ± 8.83 µM; IC50 (HCT-116 cells; [22]): 36.5 ± 3.18 µg/mL; melting point: 220 to 222 °C
